# Data from patent US20240207274A1, “Larotrectinib and moderate CYP3A4 inducer” (Bayer Consumer Care AG, priority 2022, published 2024).
# Entries after “also recorded” stand apart in the source; their conditions may differ. Where two headings read alike, the source gives them in different places.
# Assays:
# Transporter Systems = details: substrate of the transporter named in the cell; FDA list; cited from earlier work
# CYP3A4 [1] = details: classification of the drugs included in the PBPK study; cited from earlier work
# [2] = Observed plasma concentrations of larotrectinib, single oral dose 100 mg alone and with itraconazole or rifampicin; assay type: in vivo, human; details: for Ratio AUC / Ratio Cmax: Observed, single oral dose 100 mg larotrectinib
# CYP3A4 [3] = molecular target: CYP3A4 (Homo sapiens, UniProt P08684); details: following oral administration; cited from earlier work
# CYP3A4 [4] = details: cited from earlier work
# CYP Enzymes = details: moderate inducer of the CYP named in the cell; FDA list filtered for moderate CYP3A4 inducers; cenobamate classification based on 200 mg daily dose; cited from earlier work
# [5] = plus itraconazole (200 mg QD, 5th day of 7) / control, healthy subjects
# [6] = plus rifampicin (600 mg QD, 10th day of 11) / control
# [7] = coadministration of larotrectinib with rifampicin 600 mg QD
# Chain of CYP3A4 (Homo sapiens, UniProt P08684) (P08684 whole entry): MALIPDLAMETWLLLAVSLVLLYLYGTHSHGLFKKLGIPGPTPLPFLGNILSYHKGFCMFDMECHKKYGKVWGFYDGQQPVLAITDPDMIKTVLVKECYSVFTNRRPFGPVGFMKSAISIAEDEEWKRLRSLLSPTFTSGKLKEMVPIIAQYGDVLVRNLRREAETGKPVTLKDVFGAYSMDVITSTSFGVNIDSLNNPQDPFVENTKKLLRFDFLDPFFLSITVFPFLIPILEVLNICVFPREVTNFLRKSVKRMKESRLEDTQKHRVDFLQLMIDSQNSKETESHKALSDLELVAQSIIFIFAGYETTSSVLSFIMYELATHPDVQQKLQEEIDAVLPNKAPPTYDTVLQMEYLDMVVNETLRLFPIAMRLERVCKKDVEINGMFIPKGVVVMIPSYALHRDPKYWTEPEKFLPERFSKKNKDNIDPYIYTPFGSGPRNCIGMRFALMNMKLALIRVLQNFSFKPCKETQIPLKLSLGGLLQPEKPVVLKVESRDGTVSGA
structure (smiles),measurement,setting,value
COc1ccccc1Oc1c(NS(=O)(=O)c2ccc(C(C)(C)C)cc2)nc(-c2ncccn2)nc1OCCO [bosentan],TRNSP SUB,Transporter Systems,OATP1B1;; also recorded: OATP1B3
OC(Cn1cncn1)(Cn1cncn1)c1ccc(F)cc1F [Fluconazole],CYP3A4 Effect,CYP3A4 [1],Moderate CYP3A4 inhibitor
O=C(Nc1cnn2ccc(N3CCC[C@@H]3c3cc(F)ccc3F)nc12)N1CC[C@H](O)C1 [larotrectinib],Ratio AUC,[2]; [5],4.31
same,Ratio Cmax,[2]; [5],2.81
same,Ratio AUC,[2]; [6],0.19
same,Ratio Cmax,[2]; [6],0.29
same,"observed reduction in exposure, AUC",[2]; [7],81%
same,"observed reduction in exposure, Cmax",[2]; [7],71%
same,metabolism,CYP3A4 [3],metabolized by CYP3A4
CCC1(c2ccccc2)C(=O)NC(=O)NC1=O [phenobarbital],classification as CYP3A4 inducer,CYP3A4 [4]; listed by FDA,moderate inducer
same,classification as CYP3A4 inducer,CYP3A4 [4]; listed by a leading clinical support website (UpToDate),strong inducer
NC(=O)O[C@@H](Cn1ncnn1)c1ccccc1Cl [cenobamate],CYP Mod IND,CYP Enzymes,CYP3A4
CCC(C)n1ncn(-c2ccc(N3CCN(c4ccc(OCC5COC(Cn6cncn6)(c6ccc(Cl)cc6Cl)O5)cc4)CC3)cc2)c1=O (centres unmarked) [Itraconazole],CYP3A4 Effect,CYP3A4 [1],Strong CYP3A4 inhibitor
O=C1Nc2ccc(Cl)cc2[C@@](C#CC2CC2)(C(F)(F)F)O1 [efavirenz],CYP3A4 Effect,CYP3A4 [1],Moderate CYP3A4 induced
